Laboratory results: ChEMBL document CHEMBL5046281, “N-Aryl Mercaptopropionamides as Broad-Spectrum Inhibitors of Metallo-β-Lactamases” (J Med Chem, 2022)
Active and inactive are the calls of the source. The rule behind the calls is not given here.

Key:
[1] = Inhibition of Escherichia coli IMP-7 using fluorocillin as substrate incubated for 30 mins by fluorescence based assay
[2] = target: T1, Matrilysin (Homo sapiens) (UniProt P09237); assay: Inhibition of human MMP-7 at 100 uM relative to control
T1 sequence (whole entry): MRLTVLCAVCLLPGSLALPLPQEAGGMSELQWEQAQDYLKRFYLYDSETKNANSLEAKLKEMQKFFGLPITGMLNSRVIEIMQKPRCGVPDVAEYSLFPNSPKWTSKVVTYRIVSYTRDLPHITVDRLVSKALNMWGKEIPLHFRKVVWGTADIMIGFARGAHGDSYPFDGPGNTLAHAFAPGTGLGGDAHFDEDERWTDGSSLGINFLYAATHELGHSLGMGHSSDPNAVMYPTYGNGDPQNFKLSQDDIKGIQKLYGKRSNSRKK

[3] = target: Neutrophil collagenase (Homo sapiens) (UniProt P22894); assay: Inhibition of human MMP-8 at 100 uM relative to control
Sequence of Neutrophil collagenase (Homo sapiens) (P22894 101-467 limits assumed): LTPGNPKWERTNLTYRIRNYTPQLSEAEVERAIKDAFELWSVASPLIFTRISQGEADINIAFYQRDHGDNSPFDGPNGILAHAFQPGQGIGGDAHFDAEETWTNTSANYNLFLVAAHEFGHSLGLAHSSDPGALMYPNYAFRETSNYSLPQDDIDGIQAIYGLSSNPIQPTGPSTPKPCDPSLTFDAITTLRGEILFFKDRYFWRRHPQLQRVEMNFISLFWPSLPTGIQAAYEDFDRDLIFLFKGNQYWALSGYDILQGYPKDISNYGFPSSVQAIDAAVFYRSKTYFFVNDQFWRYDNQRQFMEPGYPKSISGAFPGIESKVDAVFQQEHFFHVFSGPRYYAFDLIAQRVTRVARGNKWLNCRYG

[4] = target: Matrix metalloproteinase-14 (Homo sapiens, UniProt P50281); assay: Inhibition of human MMP-14 at 100 uM relative to control
[5] = target: Disintegrin and metalloproteinase domain-containing protein 17 (Homo sapiens) (UniProt P78536); assay: Inhibition of human TACE at 100 uM relative to control
Sequence of Disintegrin and metalloproteinase domain-containing protein 17 (Homo sapiens) (P78536 whole entry, the tested form may be a part): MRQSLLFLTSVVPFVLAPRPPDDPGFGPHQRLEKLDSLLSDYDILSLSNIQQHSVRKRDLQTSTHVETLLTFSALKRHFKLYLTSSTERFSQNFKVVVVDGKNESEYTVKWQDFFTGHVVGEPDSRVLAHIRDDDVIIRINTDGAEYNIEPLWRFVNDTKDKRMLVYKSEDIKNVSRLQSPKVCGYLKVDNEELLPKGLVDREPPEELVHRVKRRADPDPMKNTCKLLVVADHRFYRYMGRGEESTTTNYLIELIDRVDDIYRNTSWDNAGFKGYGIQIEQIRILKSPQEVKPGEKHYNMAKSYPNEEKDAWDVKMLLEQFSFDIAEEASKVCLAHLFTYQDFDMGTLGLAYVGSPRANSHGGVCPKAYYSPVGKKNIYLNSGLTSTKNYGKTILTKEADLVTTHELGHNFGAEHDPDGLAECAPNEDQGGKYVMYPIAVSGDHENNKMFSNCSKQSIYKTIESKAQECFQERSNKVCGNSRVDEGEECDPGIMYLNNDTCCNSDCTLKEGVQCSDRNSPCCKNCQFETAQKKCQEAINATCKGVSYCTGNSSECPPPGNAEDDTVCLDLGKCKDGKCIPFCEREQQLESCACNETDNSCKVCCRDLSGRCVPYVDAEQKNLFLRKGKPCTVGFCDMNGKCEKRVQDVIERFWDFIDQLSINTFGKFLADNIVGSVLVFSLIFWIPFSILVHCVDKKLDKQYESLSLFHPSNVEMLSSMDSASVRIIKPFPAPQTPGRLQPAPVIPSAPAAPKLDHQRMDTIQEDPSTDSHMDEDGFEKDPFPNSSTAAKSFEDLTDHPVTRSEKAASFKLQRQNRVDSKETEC

Escherichia coli [6] = assay: Antibacterial activity against VIM-1 expressing Escherichia coli isolates assessed as inhibition of bacterial growth by microdilution method; assay type: functional, organism-based
HepG2 = assay: Cytotoxicity against human HepG2 cells assessed as reduction in cell viability at 100 uM relative to control; assay type: toxicity, cell-based; conditions: hepg2, 100 µM
HEK293 = assay: Cytotoxicity against human HEK293 cells assessed as reduction in cell viability at 100 uM relative to control; assay type: toxicity, cell-based; conditions: hek293, 100 µM
A549 = assay: Cytotoxicity against human A549 cells assessed as reduction in cell viability at 100 uM relative to control; assay type: toxicity, cell-based; conditions: a549, 100 µM
Escherichia coli [7] = assay: Potentiation of imipenem-induced antibacterial activity against NDM-1 producing Escherichia coli assessed as fold change in imipenem MIC at 2 ug/ml by microdilution method; assay type: functional; conditions: dose 2 µg/ml
Escherichia coli [8] = assay: Potentiation of imipenem-induced antibacterial activity against NDM-7 producing Escherichia coli T2239 clinical isolates assessed as imipenem MIC at 128 mg/l by microdilution method; assay type: functional
Klebsiella pneumoniae [9] = assay: Potentiation of imipenem-induced antibacterial activity against NDM-1 producing Klebsiella pneumoniae T2301 clinical isolates assessed as imipenem MIC at 128 mg/l by microdilution method; assay type: functional
Enterobacter cloacae [10] = assay: Potentiation of imipenem-induced antibacterial activity against NDM-1 producing Enterobacter cloacae T2311 clinical isolates assessed as imipenem MIC at 128 mg/l by microdilution method; assay type: functional
Serratia marcescens = assay: Potentiation of imipenem-induced antibacterial activity against NDM-1 producing Serratia marcescens T2352 clinical isolates assessed as imipenem MIC at 128 mg/l by microdilution method; assay type: functional
Enterobacter cloacae [11] = assay: Potentiation of imipenem-induced antibacterial activity against VIM-1 producing Enterobacter cloacae T2353 clinical isolates assessed as imipenem MIC at 128 mg/l by microdilution method; assay type: functional
Pseudomonas aeruginosa [12] = assay: Potentiation of imipenem-induced antibacterial activity against IMP-1 producing Pseudomonas aeruginosa T2325 clinical isolates assessed as imipenem MIC at 128 mg/l by microdilution method; assay type: functional
Enterobacter cloacae [13] = assay: Potentiation of imipenem-induced antibacterial activity against GIM-1 producing Enterobacter cloacae T2218 clinical isolates assessed as imipenem MIC at 128 mg/l by microdilution method; assay type: functional
[14] = Selectivity ratio of MIC for antibacterial activity against VIM-1 producing Enterobacter cloacae T2353 clinical isolates to MIC for potentiation of imipenem-induced antibacterial activity against VIM-1 producing Enterobacter cloacae T2353 clinical isolates assessed as imipenem MIC at 128 mg/l; assay type: functional
[15] = Selectivity ratio of MIC for antibacterial activity against GIM-1 producing Enterobacter cloacae T2218 clinical isolates to MIC for potentiation of imipenem-induced antibacterial activity against GIM-1 producing Enterobacter cloacae T2218 clinical isolates assessed as imipenem MIC at 128 mg/l; assay type: functional
[16] = Selectivity ratio of MIC for antibacterial activity against KPC-2 producing Escherichia coli T2435 clinical isolates to MIC for potentiation of imipenem-induced antibacterial activity against KPC-2 producing Escherichia coli T2435 clinical isolates assessed as imipenem MIC at 128 mg/l; assay type: functional
Klebsiella pneumoniae [17] = assay: Antibacterial activity against imipenem-resistant NDM-1-producing Klebsiella pneumoniae T2301 infected in Galleria mellonella larvae assessed as survival rate at 38.4 ug injected via proleg measured after 1 day by Kaplan-Meier method; assay type: functional; conditions: dose 38.4 µg
Klebsiella pneumoniae [18] = assay: Antibacterial activity against imipenem-resistant NDM-1-producing Klebsiella pneumoniae T2301 infected in Galleria mellonella larvae assessed as survival rate at 38.4 ug injected via proleg measured after 3 days in presence of imipenem by Kaplan-Meier method; assay type: functional; conditions: dose 38.4 µg; time 3 day
Escherichia coli [19] = assay: Potentiation of imipenem-induced antibacterial activity against NDM-1 producing Escherichia coli assessed as imipenem MIC at 8 ug/ml by microdilution method (reference value: 128 ug/ml); assay type: functional; conditions: dose 8 µg/ml
Escherichia coli [20] = assay: Potentiation of imipenem-induced antibacterial activity against NDM-1 producing Escherichia coli assessed as imipenem MIC at 16 ug/ml by microdilution method (reference value: 128 ug/ml); assay type: functional; conditions: dose 16 µg/ml
Escherichia coli [21] = assay: Potentiation of imipenem-induced antibacterial activity against NDM-1 producing Escherichia coli assessed as imipenem MIC at 64 ug/ml by microdilution method (reference value: 128 ug/ml); assay type: functional; conditions: dose 64 µg/ml
Escherichia coli [22] = assay: Potentiation of imipenem-induced antibacterial activity against NDM-1 producing Escherichia coli assessed as imipenem MIC at 128 ug/ml by microdilution method (reference value: 128 ug/ml); assay type: functional; conditions: dose 128 µg/ml
Escherichia coli [23] = assay: Potentiation of imipenem-induced antibacterial activity against NDM-1 producing Escherichia coli assessed as fold change in imipenem MIC at 4 ug/ml by microdilution method; assay type: functional; conditions: dose 4 µg/ml
Escherichia coli [24] = assay: Potentiation of imipenem-induced antibacterial activity against NDM-1 producing Escherichia coli assessed as fold change in imipenem MIC at 8 ug/ml by microdilution method; assay type: functional; conditions: dose 8 µg/ml
Escherichia coli [25] = assay: Potentiation of imipenem-induced antibacterial activity against NDM-1 producing Escherichia coli assessed as fold change in imipenem MIC at 16 ug/ml by microdilution method; assay type: functional; conditions: dose 16 µg/ml
Escherichia coli [26] = assay: Potentiation of imipenem-induced antibacterial activity against NDM-1 producing Escherichia coli assessed as fold change in imipenem MIC at 128 ug/ml by microdilution method; assay type: functional; conditions: dose 128 µg/ml
Pseudomonas aeruginosa [27] = assay: Inhibition of Pseudomonas aeruginosa quorum sensing system LasB at 100 uM
Klebsiella pneumoniae [28] = assay: Selectivity ratio of MIC for antibacterial activity against NDM-1 producing Klebsiella pneumoniae T2301 clinical isolates to MIC for potentiation of imipenem-induced antibacterial activity against NDM-1 producing Klebsiella pneumoniae T2301 clinical isolates assessed as imipenem MIC at 128 mg/l

For O=C(CCS)Nc1cccc(C(=O)O)c1, the IC50 [1] was 6.4 µM, the inhibition [2] was < 10% and the inhibition [3] was < 10%. The inhibition [4] was 61%, the inhibition [5] was < 10% and the Activity (Escherichia coli [6]) was “inactive”. For the same compound, the Activity (HepG2) was < 10%, the Activity (HEK293) was < 10% and the Activity (A549) was < 10%. For the same compound, the “fold change (FC)” value (Escherichia coli [7]) was 1, the MIC (Escherichia coli [8]) was 2 µg/mL and the MIC (Klebsiella pneumoniae [9]) was 0.5 µg/mL. The MIC (Enterobacter cloacae [10]) was 1 µg/mL, the MIC (Serratia marcescens) was 4 µg/mL and the MIC (Enterobacter cloacae [11]) was 2 µg/mL. It also gave an MIC (Pseudomonas aeruginosa [12]) of 16 µg/mL, an MIC (Enterobacter cloacae [13]) of 2 µg/mL and a Ratio [14] of 2. The Ratio [15] was 1, the Ratio [16] was 1 and the Activity (Klebsiella pneumoniae [17]) was <20%. The Activity (Klebsiella pneumoniae [18]) was “<=56%”, the MIC (Escherichia coli [19]) was 64 µg/mL and the MIC (Escherichia coli [20]) was 64 µg/mL. The MIC (Escherichia coli [21]) was 2 µg/mL, the MIC (Escherichia coli [22]) was ≤ 0.5 µg/mL and the “fold change (FC)” value (Escherichia coli [23]) was 1. The “fold change (FC)” value (Escherichia coli [24]) was 2, the “fold change (FC)” value (Escherichia coli [25]) was 2 and the “fold change (FC)” value (Escherichia coli [26]) was 256. The inhibition (Pseudomonas aeruginosa [27]) was “Active” and the Ratio (Klebsiella pneumoniae [28]) was 32.
